Patent US20100029620A1, “SUBSTITUTED TRIAZOLINE, TETRAZOLONE AND IMIDAZOLONE DERIVATIVES FOR USE AS A MEDICINE” (JANSSEN PHARMACEUTICA N.V., priority 2004, published 2010)

Legend:
[1] = target: T1, human adrenergic-α2A receptor (Homo sapiens, UniProt P08913); experiment: Radioligand binding experiment for α2A-adrenoceptor ([3H]-raulwolscine competition, CHO cell membranes); details: [3H]raulwolscine 1 nM, membranes of CHO cells transfected with human α2A receptor; read-out: pIC50 α2A (converted)
T1 construct: expressed in transfected cells; membrane preparation
T1 sequence (P08913 1-465): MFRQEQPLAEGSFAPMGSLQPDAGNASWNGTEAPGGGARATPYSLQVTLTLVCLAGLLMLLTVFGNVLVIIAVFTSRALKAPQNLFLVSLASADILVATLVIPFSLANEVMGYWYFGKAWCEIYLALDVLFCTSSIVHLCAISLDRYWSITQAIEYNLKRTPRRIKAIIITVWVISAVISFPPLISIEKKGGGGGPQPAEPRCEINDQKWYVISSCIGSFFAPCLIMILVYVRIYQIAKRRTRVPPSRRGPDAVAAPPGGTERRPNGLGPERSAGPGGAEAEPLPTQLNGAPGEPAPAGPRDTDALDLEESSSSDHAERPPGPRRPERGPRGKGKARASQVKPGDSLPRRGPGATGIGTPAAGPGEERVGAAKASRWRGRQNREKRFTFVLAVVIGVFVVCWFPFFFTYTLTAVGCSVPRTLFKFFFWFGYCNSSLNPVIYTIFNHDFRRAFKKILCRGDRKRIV
Procedure: (§1) The interaction of the compounds of Formula (I) with α2C-adrenoceptor receptors was assessed in in vitro radioligand binding experiments. In general, a low concentration of a radioligand with a high binding affinity for a particular receptor or transporter is incubated with a sample of a tissue preparation enriched in a particular receptor or transporter or with a preparation of cells expressing cloned human receptors in a buffered medium. During the incubation, the radioligand binds to the receptor or transporter. When equilibrium of binding is reached, the receptor bound radioactivity is separated from the non-bound radioactivity, and the receptor- or transporter-bound activity is counted. The interaction of the test compounds with the receptor is assessed in competition binding experiments. Various concentrations of the test compound are added to the incubation mixture containing the receptor- or transporter preparation and the radioligand. The test compound in proportion to its binding affinity and its concentration inhibits binding of the radioligand. The radioligand used for […] receptor binding was [^3H]-raulwolscine.
(§2) CHO cells, stabile transfected with human adrenergic-α2A-, -α2B or α2C receptor cDNA, were cultured in Dulbecco's Modified Eagle's Medium (DMEM)/Nutrient mixture Ham's F12 (ratio 1:1)(Gibco, Gent-Belgium) supplemented with 10% heat inactivated fetal calf serum (Life Technologies, Merelbeke-Belgium) and antibiotics (100 IU/ml penicillin G, 100 μg/ml streptomycin sulphate, 110 μg/ml pyruvic acid and 100 μg/ml L-glutamine). One day before collection, cells were induced with 5 mM sodiumbutyrate. Upon 80-90% of confluence, cells were scraped in phosphate buffered saline without Ca^2+ and Mg^2+ and collected by centrifugation at 1500×g for 10 min. The cells were homogenised in Tris-HCl 50 mM using an Ultraturrax homogenizer and centrifuged for 10 min at 23,500×g. The pellet was washed once by resuspension and rehomogenization and the final pellet was resuspended in Tris-HCl, divided in 1 ml aliquots and stored at −70° C.
(§3) Membranes were thawed and re-homogenized in incubation buffer (glycylglycine 25 mM, pH 8.0). In a total volume of 500 μl, 2-10 μg protein was incubated with [^3H]raulwolscine (NET-722) (New England Nuclear, USA) (1 nM final concentration) with or without competitor for 60 min at 25° C. followed by rapid filtration over GF/B filter using a Filtermate196 harvester (Packard, Meriden, Conn.). Filters were rinsed extensively with ice-cold rinsing buffer (Tris-HCl 50 mM pH 7.4). Filter-bound radioactivity was determined by scintillation counting in a Topcount (Packard, Meriden, CT) and results were expressed as counts per minute (cpm). Non-specific binding was determined in the presence of 1 μM oxymetazoline for hα2A- and hα2B receptors and 1 μM spiroxatrine for hα2C receptors.
(§4) Data from assays in the presence of compound were calculated as a percentage of total binding measured in the absence of test compound. Inhibition curves, plotting percent of total binding versus the log value of the concentration of the test compound, were automatically generated, and sigmoidal inhibition curves were fitted using non-linear regression. The pIC50 values of test compounds were derived from individual curves.

[2] = target: T2, human adrenergic-α2B receptor (Homo sapiens, UniProt P18089); experiment: Radioligand binding experiment for α2B-adrenoceptor ([3H]-raulwolscine competition, CHO cell membranes); details: [3H]raulwolscine 1 nM, membranes of CHO cells transfected with human α2B receptor; read-out: pIC50 α2B (converted)
T2 construct: expressed in transfected cells; membrane preparation
T2 sequence (P18089 1-450): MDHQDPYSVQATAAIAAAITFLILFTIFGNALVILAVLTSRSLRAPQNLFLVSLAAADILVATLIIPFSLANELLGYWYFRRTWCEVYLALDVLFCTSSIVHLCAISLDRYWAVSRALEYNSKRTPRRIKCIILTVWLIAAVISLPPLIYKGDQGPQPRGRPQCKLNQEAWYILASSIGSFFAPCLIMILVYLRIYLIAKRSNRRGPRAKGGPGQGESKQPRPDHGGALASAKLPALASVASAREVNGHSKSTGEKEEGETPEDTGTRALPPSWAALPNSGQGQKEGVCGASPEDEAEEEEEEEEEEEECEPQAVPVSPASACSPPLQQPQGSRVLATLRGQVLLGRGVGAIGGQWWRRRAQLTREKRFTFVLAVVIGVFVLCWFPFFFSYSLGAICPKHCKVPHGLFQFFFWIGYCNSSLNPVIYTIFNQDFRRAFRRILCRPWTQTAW
Procedure: as §1, §2, §3, §4

[3] = target: T3, human adrenergic-α2C receptor (Homo sapiens, UniProt P18825); experiment: Radioligand binding experiment for α2C-adrenoceptor ([3H]-raulwolscine competition, CHO cell membranes); details: [3H]raulwolscine 1 nM, membranes of CHO cells transfected with human α2C receptor; read-out: pIC50 α2C (converted)
T3 construct: expressed in transfected cells; membrane preparation
T3 sequence (P18825 1-462): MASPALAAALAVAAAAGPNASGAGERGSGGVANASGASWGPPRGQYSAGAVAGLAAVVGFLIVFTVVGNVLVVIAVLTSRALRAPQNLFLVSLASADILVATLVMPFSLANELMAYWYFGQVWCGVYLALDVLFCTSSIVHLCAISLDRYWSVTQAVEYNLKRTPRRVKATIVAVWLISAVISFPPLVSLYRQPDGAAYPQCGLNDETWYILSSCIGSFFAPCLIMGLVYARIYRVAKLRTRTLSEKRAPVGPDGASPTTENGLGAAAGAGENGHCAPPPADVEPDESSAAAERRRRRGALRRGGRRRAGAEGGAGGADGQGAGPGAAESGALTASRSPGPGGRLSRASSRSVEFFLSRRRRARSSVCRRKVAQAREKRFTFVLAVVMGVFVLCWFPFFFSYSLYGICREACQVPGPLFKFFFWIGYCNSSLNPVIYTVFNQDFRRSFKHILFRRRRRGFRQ
Procedure: as §1, §2, §3, §4

Structure (SMILES)	IC50 [1]	IC50 [2]	IC50 [3]
O=c1n(-c2ccc(N3CCN(Cc4ccccc4)CC3)cc2)cnn1CCNCCOc1ccccc1 [compound 3]	398 nM	251 nM	15.8 nM
CN1CCCN(c2ccc(-n3cnn(CCNCCOc4ccccc4)c3=O)cc2)CC1 [compound 12]	126 nM	100 nM	1.58 nM
CC(NCCOc1ccccc1)C(C)n1ncn(-c2ccc(N3CCN(c4ccc(O)cc4)CC3)cc2)c1=O (single isomer, unassigned) [compound 7]	126 nM	126 nM	7.94 nM
O=c1n(-c2ccc(CN3CCC(N4CCCC4)CC3)cc2)cnn1CCNCCOc1ccccc1 [compound 21]	39.8 nM	79.4 nM	1.58 nM
CN1CCCN(Cc2ccc(-n3cnn(CCNCCOc4ccccc4)c3=O)cc2)CC1 [compound 13]	63.1 nM	63.1 nM	1 nM
C/C(=C\c1ccccc1)CN1CCC(n2cnn(Cc3ccc(CN)cc3)c2=O)CC1 [compound 32]	126 nM	50.1 nM	12.6 nM
CN(C)CCNc1ccc(-n2cnn(CC3CCN(CCOc4ccccc4)CC3)c2=O)cc1 [compound 38]	25.1 nM	3.98 nM	1.58 nM
NCc1ccc(-n2cnn(C3CCN(CCOc4ccccc4)CC3)c2=O)cc1 [compound 36]	39.8 nM	79.4 nM	12.6 nM
C/C(=C\c1ccccc1)CN1CCC(n2cnn(CCN(C)CCOc3ccccc3)c2=O)CC1 [compound 30]	398 nM	200 nM	15.8 nM
CC(NCCOc1ccccc1)C(C)n1ncn(-c2ccc(N3CCN(c4ccc(O)cc4)CC3)cc2)c1=O (racemic) [compound 5]	501 nM	501 nM	10 nM
CN(CCNc1ccc(-n2cnn(CC3CCN(CCOc4ccccc4)CC3)c2=O)cc1)CC1CCCCC1 [compound 42]	25.1 nM	7.94 nM	1 nM
O=c1n(-c2ccc(CN3CCN(c4ccccc4)CC3)cc2)cnn1CCNCCOc1ccccc1 [compound 2]	200 nM	200 nM	25.1 nM
O=c1n(-c2ccc(CN3CCC(O)CC3)cc2)cnn1CCNCCOc1ccccc1 [compound 18]	50.1 nM	126 nM	1.58 nM
O=c1n(CCNCCOc2ccccc2)cnn1CCN1CCCCC1 [compound 44]	126 nM	3980 nM	10 nM
O=c1n(CCNCCOc2ccccc2)cnn1-c1ccc(CN2CCOCC2)cc1 [compound 45]	316 nM	200 nM	20 nM

The remaining lines, values ahead:

IC50 [1]	IC50 [2]	IC50 [3]	Structure (SMILES)
251 nM	126 nM	2 nM	O=c1n(-c2ccc(NCc3ccc(F)cc3)cc2)cnn1CCNCCOc1ccccc1 [compound 89]
39.8 nM	10 nM	0.501 nM	O=c1n(-c2ccc(CN3CCCC3)cc2)cnn1CC1CCN(CCOc2ccccc2)CC1 [compound 62]
31.6 nM	79.4 nM	5.01 nM	O=c1n(-c2ccc(CNCc3ccc(F)cc3)cc2)cnn1CCNCCOc1ccccc1 [compound 91]
79.4 nM	20 nM	1.26 nM	O=c1n(-c2ccc(CN3CCC(O)CC3)cc2)cnn1CC1CCN(CCOc2ccccc2)CC1 [compound 65]
126 nM	158 nM	6.31 nM	CN(Cc1ccccc1)C(=O)Cn1cnn(CC2CCN(CCOc3ccccc3)CC2)c1=O [compound 46]
398 nM	631 nM	31.6 nM	C/C(=C\c1ccccc1)CN1CCC(n2cnn(CCN3CCCCC3)c2=O)CC1 [compound 79]
39.8 nM	31.6 nM	1 nM	CN(C)CCNc1ccc(-n2cnn(CCNCCOc3ccccc3)c2=O)cc1 [compound 86]
31.6 nM	39.8 nM	2 nM	C/C(=C\c1ccccc1)CN1CCC(n2ncn(-c3ccc(CN4C(=O)c5ccccc5C4=O)cc3)c2=O)CC1 [compound 109]
79.4 nM	39.8 nM	3.98 nM	O=C(Cn1cnn(CC2CCN(CCOc3ccccc3)CC2)c1=O)Nc1ccc(F)cc1 [compound 47]
398 nM	100 nM	25.1 nM	O=c1n(CC2CCN(CCOc3ccccc3)CC2)cnn1CCN1CCOCC1 [compound 67]
158 nM	25.1 nM	7.94 nM	O=c1n(-c2ccc(N3CCOCC3)cc2)cnn1CC1CCN(CCOc2ccccc2)CC1 [compound 72]
15.8 nM	126 nM	1.58 nM	O=c1n(-c2ccc(CNCCN3CCCCC3)cc2)cnn1CCNCCOc1ccccc1 [compound 95]
251 nM	251 nM	20 nM	O=c1n(CCN2CCOCC2)cnn1CC1CCN(CCOc2ccccc2)CC1 [compound 71]
251 nM	200 nM	10 nM	O=c1n(-c2ccc3c(c2)CCN(Cc2ccc(F)cc2)C3)cnn1CCNCCOc1ccccc1 [compound 99]
20 nM	50.1 nM	0.631 nM	O=c1n(-c2ccc(CNCCc3ccccc3)cc2)cnn1CCNCCOc1ccccc1 [compound 90]
158 nM	31.6 nM	5.01 nM	O=c1n(-c2ccc(N3CCCCC3)cc2)cnn1CC1CCN(CCOc2ccccc2)CC1 [compound 63]
39.8 nM	200 nM	3.16 nM	O=c1n(-c2ccc(CNCc3ccccn3)cc2)cnn1CCNCCOc1ccccc1 [compound 96]
31.6 nM	126 nM	3.16 nM	CN(Cc1ccccc1)Cc1ccc(-n2cnn(CCNCCOc3ccccc3)c2=O)cc1 [compound 94]
